Assay results from patent publication US11744791B2, “Cosmetic composition comprising amide-based compound” (Neopharm Co., Ltd., priority 2020, dated 2023).

Key:
[1] = tested on: PPAR-γ; assay: Analysis of expression level of PPAR-γ (Western blot) in sebocytes; assay type: cell-based; conditions: human sebocytes, 24 hours
Description: An expression level of PPAR-γ was determined through Western blot in Examples and Comparative Examples of the present invention.
Specifically, human sebocytes were cultured in a 12-well plate containing a Dulbecco's modified eagle medium (DMEM)/F12 (1:1) medium supplemented with 10% fetal bovine serum (FBS) to attach 1.5×10^5 (1 mL/well) sebocytes to the 12-well plate. The sebocytes were cultured for 24 hours, and the medium was replaced with a serum-free medium. Then, an experimental group in which the cells were treated with each of the compounds of Examples or Comparative Examples was cultured for 24 hours, and the cells were then recovered. Thereafter, each of these samples was subjected to Western blot to analyze an expression level of PPAR-γ in the sebocytes. A sample (100 μM) of Example 1 or 2 or Comparative Example 1 or 2 including the amide-based compound having a structure shown in the following Table 1 was used as the sample. Also, a sample treated with 10 μM IGF-1 was used as the positive control, and the control in which the cells were not treated with the sample was used as the comparison group.

[2] = tested on: CD44; assay: Analysis of expression level of CD44 in adipose tissue-derived mesenchymal stem cells; assay type: cell-based, human; conditions: hADSCs, sample 100 μM
Description: For flow cytometric analysis of the adipose tissue-derived stem cells of Examples and Comparative Examples of the present invention, an expression level of CD44 was measured. For this purpose, each of the samples was added to each medium. A sample (100 μM) of Example 1 or 2 or Comparative Example 1 or 2 including the amide-based compound having a structure shown in the following Table 1. Also, a sample treated with 10 μM IGF-1 was used as the positive control, and the control in which the cells were not treated with the sample was used as the comparison group.
Specifically, RNA was isolated from human adipose tissue-derived mesenchymal stem cells (hADSCs) according to the manufacturer's instructions using an easy BLUE reagent. The isolated RNA was dissolved in distilled water supplemented with diethyl procarbonate (DEPC), and the absorbance was measured at 260 nm, and a concentration of the RNA was quantified, and then used for experiments. Then, an expression level of CD44 in the adipose tissue-derived stem cells was analyzed.

[3] = tested on: filaggrin; assay: Expression level of filaggrin gene in keratinocytes (Real-Time PCR); assay type: cell-based, human; conditions: sample 100 μM, 24 hours
Description: (§1) To determine effects of the samples of Examples and Comparative Examples of the present invention on promotion of expression of moisturizing factors, expression levels of filaggrin and loricrin were measured.
(§2) Specifically, keratinocytes commercially available from Invitrogen Corp. were cultured for a predetermined period of time in an EpiLife medium (keratinocyte growth media:keratinocyte growth medium) supplemented with a human keratinocyte growth supplement (HKGS), subcultured three times, and then used. The keratinocytes which were subcultured 3 times were cultured to a confluence of 70 to 80% in a 6-well plate, and each of the wells was separately treated with each of the samples. Thereafter, the cells were cultured for a total of 24 hours. RNA of the keratinocytes was extracted from the cultured cells using an easy BLUE reagent, and cDNA was synthesized using a SuperScript reverse transcriptase III kit. A 7500 Fast Real-Time PCR for genetic comparison was performed using a 2×TaqMan universal PCR mixture (10 μL), a 20×TaqMan expression assay mix (1 μL), cDNA (50 ng), and primers (Filaggrin: Hs00856927_g1*, Loricrin: Hs01894962_s1*). Also, a sample treated with 10 μM IGF-1 was used as the positive control, and the control in which the cells were not treated with the sample was used as the comparison group.

[4] = tested on: loricrin; assay: Expression level of loricrin gene in keratinocytes (Real-Time PCR); assay type: cell-based, human; conditions: sample 100 μM, 24 hours
Description: as §1, §2

Q: How did the “inhibited the expression of PPAR-γ, compared to the control” value ([1]; sample 100 μM) turn out when `CCCCCCCC(=O)NCCO` [Comparative Example 2, N-(2-hydroxyethyl)octanamide, reference compound] was run?
A: Its value is 75.5%.

Q: What about the “expression level of CD44 (in words), compared to the control” value [2] of the same molecule?
A: Its value is “lower expression level of CD44”.

Q: Which “effect of improving the expression of PPAR-γ” value ([1]; sample 100 μM) does the source give for `CCCCCC(=O)NCC(O)CO` (stereo not shown) [Example 2, N-(2,3-dihydroxypropyl)hexanamide] here?
A: Its value is 140.8%.

Q: For `CCCCCCCCCC(=O)NC(CO)CO` [Example 1, N-(2-hydroxy-1-(hydroxymethyl)ethyl)decanamide], which “effect of improving the expression of PPAR-γ” value ([1]; sample 100 μM) is on record?
A: The value was 128.4%.

Q: What about the “enhanced expression level of filaggrin, compared to the control” value [3] of the same molecule?
A: Its value is no less than 300%.

Q: What about the “enhanced expression level of loricrin, compared to the control” value [4] of the same molecule?
A: The value was no less than 400%.

Q: How did the “expression of PPAR-γ (in words)” value ([1]; IGF-1 10 μM, samples 100 μM) turn out when “IGF-1: positive control, sample treated with 10 μM IGF-1 [reference compound]” was run?
A: Its value is “promoted”.
